Where two headings read alike, the source gives them in different places.
Key:
human recombinant BACE1 = human recombinant BACE1 (Homo sapiens, UniProt P56817); test: biochemical; type: biochemical; settings: n: 3; for BACE1 Inhibition (Inhibition% ± SD): 10 mM stock concentration; for IC50: BACE1
Procedure: Fluorescence resonance energy transfer (FRET) technology was used to measure the enzymatic activity of BACE1, and measurements were performed by modifying previously used methods and the protocol included in the manufacturer’s (PanVera® Corporation, Madison, […], USA) assay kit. […] The inhibition rate was obtained using the following equation:Inhibition% = [1 − (B − B0)/(K − K0)] × 100
• K0 = fluorescence value of the control group at minute 0 • K = fluorescence value of the control group at 60 min • B0 = fluorescence value of the test compound at minute 0 • B = fluorescence value of the test compound at 60 min

BACT = test: RT-PCR gene expression in SH-SY5Y cells (reference gene); type: cell-based, human; settings: 24 h at IC08, β-actin, the normalizing reference gene
Procedure: (§1) In the RNA isolation protocol, cell pellets were homogenized using 1 mL of TRIzol reagent and incubated for 5 min at room temperature. Chloroform (200 μL) was added, and the mixture was shaken vigorously and incubated for 3 min at room temperature. The mixture was then centrifuged at 10,000 rpm for 15 min at +4 °C, and the upper colorless phase was transferred to an RNase-free microcentrifuge tube. Isopropanol (500 μL) was added to the tube, and the mixture was incubated at room temperature for 10 min and centrifuged at 10,000 rpm for 10 min. The supernatant was removed, and the pellet was washed with at least 75% ethanol (1 mL) and centrifuged at 7500 rpm for 5 min at +4 °C. After removing all of the supernatant from the tube and air-drying the pellet, the RNA-containing pellet was dissolved in approximately 100 μL of nuclease-free water and incubated at 55 °C for 5 min. RNA was stored at -80 °C for long-term storage. cDNA synthesis was performed using the ABM, OneScript® Plus cDNA synthesis kit (Applied Biological Materials Inc. (abm), Richmond, BC, Canada). A mixture of RNA (2000 ng/μL), dNTPs (1 μL), oligo (dT) primer (1 μL), […], and up to 13 μL of nuclease-free water was prepared and incubated at 65 °C for 5 min as described in the protocol supplied with the kit. After incubating the mixture on ice for 1 min, 4 μL of 5X RT buffer and 1 μL of OneScript® Plus RTase were added to the tube. The mixture was incubated at 50 °C for 50 min and 85 °C for 5 min. cDNA was stored at -20 °C for long-term storage. Real-time PCR was performed using ABM, BlasTaqTM 2X qPCR MasterMix, and the CFX Connect real-time system. […] DMSO, the solvent for dissolving the phenolic compounds, was used as the control group. The Qiagen GeneGlobe Complimentary qPCR Data Analysis Portal (Redwood City, CA, USA), utilizing default parameters, was employed to calculate changes in gene expression. CT values were exported from the BioRad CFX Connect real-time qPCR system and normalized against a reference gene. The p-value was derived from a Student's t-test applied to the replicate 2^-ΔΔCT values for each gene in the comparisons between the control and test groups. The p-value calculation employed was derived from a parametric, unpaired, two-sample equal variance, two-tailed distribution, a method that is widely recognized in the scientific literature. Fold change calculations, representing gene expression ratios, were determined using the established ΔΔCT method as initially described by Livak and Schmittgen. […] Multiple groups were compared by ANOVA and Dunnet post hoc test.

[1] = test system: SH-SY5Y human neuroblastoma cells; type: cell-based; settings: 24 h
Procedure: SH-SY5Y, a human neuroblastoma cell line (purchased from ATCC®, Cat. No. CRL-2266™), was maintained in Dulbecco’s Modified Eagle Medium/Nutrient Mixture F-12 (DMEM/F-12) complemented with 10% heat-inactivated fetal bovine serum (FBS) and 1% penicillin–streptomycin after being processed for 30 min at 56 °C. Cells were cultivated in a sterile incubator at 37 °C with 5% CO2 and 95% relative humidity.
Cells were maintained in Dulbecco’s Modified Eagle’s Medium (DMEM)/nutrient mixture F-12 (DMEM/F-12) containing 1% penicillin–streptomycin supplemented with 10% fetal bovine serum (FBS) heat-inactivated at 56 °C for 30 min. Cells were cultured in a sterile incubator at 37 °C with 5% CO2 and 95% humidity. Then, 10,000 SH-SY5Y cells in 100 µL of complete medium were seeded in each well of a 96-well plate and incubated for 16–24 h for surface attachment. […] Then, 10 µL of filter-sterilized 0.015% resazurin solution (Sigma-Aldrich, R7017) was added to each well and incubated for 2 h at 37 °C with 5% CO2. Excitation at 560 nm wavelength and emission fluorescence at 590 nm wavelength were measured, and cell viability% was calculated compared to the control group.

PSEN1 = test: RT-PCR gene expression in SH-SY5Y cells; type: cell-based, human; settings: 24 h at IC08, vs DMSO control, normalized to β-actin
Procedure: as §1

CR1 = test: RT-PCR gene expression in SH-SY5Y cells; type: cell-based, human; settings: 24 h at IC08, vs DMSO control, normalized to β-actin
Procedure: as §1

CCL5 = test: RT-PCR gene expression in SH-SY5Y cells; type: cell-based, human; settings: 24 h at IC08, vs DMSO control, normalized to β-actin
Procedure: as §1

BIN1 = test: RT-PCR gene expression in SH-SY5Y cells; type: cell-based, human; settings: 24 h at IC08, vs DMSO control, normalized to β-actin
Procedure: as §1

MMP9 = test: RT-PCR gene expression in SH-SY5Y cells; type: cell-based, human; settings: 24 h at IC08, vs DMSO control, normalized to β-actin
Procedure: as §1

CLU = test: RT-PCR gene expression in SH-SY5Y cells; type: cell-based, human; settings: 24 h at IC08, vs DMSO control, normalized to β-actin
Procedure: as §1

TNF = test: RT-PCR gene expression in SH-SY5Y cells; type: cell-based, human; settings: 24 h at IC08, vs DMSO control, normalized to β-actin
Procedure: as §1

APOE = test: RT-PCR gene expression in SH-SY5Y cells; type: cell-based, human; settings: 24 h at IC08, vs DMSO control, normalized to β-actin
Procedure: as §1

PICALM = test: RT-PCR gene expression in SH-SY5Y cells; type: cell-based, human; settings: 24 h at IC08, vs DMSO control, normalized to β-actin
Procedure: as §1

ABCA7 = test: RT-PCR gene expression in SH-SY5Y cells; type: cell-based, human; settings: 24 h at IC08, vs DMSO control, normalized to β-actin
Procedure: as §1

CD2AP = test: RT-PCR gene expression in SH-SY5Y cells; type: cell-based, human; settings: 24 h at IC08, vs DMSO control, normalized to β-actin
Procedure: as §1

APP = test: RT-PCR gene expression in SH-SY5Y cells; type: cell-based, human; settings: 24 h at IC08, vs DMSO control, normalized to β-actin
Procedure: as §1

SORL1 = test: RT-PCR gene expression in SH-SY5Y cells; type: cell-based, human; settings: 24 h at IC08, vs DMSO control, normalized to β-actin
Procedure: as §1

CD33 = test: RT-PCR gene expression in SH-SY5Y cells; type: cell-based, human; settings: 24 h at IC08, vs DMSO control, normalized to β-actin
Procedure: as §1

BACE1 = settings: earlier study, cited from earlier work
APP/PS1 transgenic mice = test system: APP/PS1 transgenic mice; design: method as in PMID 32913125; settings: 6 months at 20 mg/kg b.w.; cited from earlier work
[2] = concentration with 8% inhibition (92% viability), SH-SY5Y, Mean ± SD
[3] = read-out: IC50 (inhibitory effect against BACE1)

Chain of human recombinant BACE1 (P56817 46-501): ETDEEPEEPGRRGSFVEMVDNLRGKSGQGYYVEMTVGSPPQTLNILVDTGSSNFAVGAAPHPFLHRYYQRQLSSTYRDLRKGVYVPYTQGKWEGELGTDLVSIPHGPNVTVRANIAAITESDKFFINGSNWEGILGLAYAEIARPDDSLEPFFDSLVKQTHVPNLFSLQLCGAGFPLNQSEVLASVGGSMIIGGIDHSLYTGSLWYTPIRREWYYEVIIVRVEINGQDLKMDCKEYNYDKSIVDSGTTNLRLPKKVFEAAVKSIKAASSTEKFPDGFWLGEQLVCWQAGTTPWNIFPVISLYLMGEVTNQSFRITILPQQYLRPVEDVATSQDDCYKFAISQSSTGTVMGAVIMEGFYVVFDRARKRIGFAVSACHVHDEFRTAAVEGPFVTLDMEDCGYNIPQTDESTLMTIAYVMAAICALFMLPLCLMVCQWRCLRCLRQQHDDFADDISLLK

| SMILES | BACE1 Inhibition (Inhibition% ± SD) (human recombinant BACE1) | IC50 (human recombinant BACE1) | Fold Regulation BACT (BACT) | IC08 Values [1, 2] | Fold Regulation PSEN1 (PSEN1) | Fold Regulation CR1 (CR1) | Fold Regulation CCL5 (CCL5) | Fold Regulation BIN1 (BIN1) | Fold Regulation MMP9 (MMP9) | Fold Regulation CLU (CLU) | Fold Regulation TNF (TNF) | Fold Regulation APOE (APOE) | Fold Regulation PICALM (PICALM) | Fold Regulation ABCA7 (ABCA7) | Fold Regulation CD2AP (CD2AP) | Fold Regulation APP (APP) | Fold Regulation SORL1 (SORL1) | Fold Regulation CD33 (CD33) | IC50 (BACE1; [3]) | IC08 Values ([1]; human) | also measured |
| --- | --- | --- | --- | --- | --- | --- | --- | --- | --- | --- | --- | --- | --- | --- | --- | --- | --- | --- | --- | --- | --- |
| OCCc1ccc(O)c(O)c1 [3-Hydroxytyrosol, 3-hydroxytyrosol] | 45.33 ± 0.22% | > 10000 µM | 1.00 | 278 ± 12.21 µM | −1.08 | 2.86 | 3.61 | 1.87 | 4.38 | 1.15 | 2.04 | −1.17 | 1.21 | 1.82 | 1.36 | −1.07 | 1.81 | 2.88 | 0.035 ± 0.04 µM |  | BACE1 Inhibition (Inhibition% ± SD) (human recombinant BACE1; listed as 3-hydroxytyrosol): below 50% |
| O=C(O[C@@H]1Cc2c(O)cc(O)cc2O[C@@H]1c1cc(O)c(O)c(O)c1)c1cc(O)c(O)c(O)c1 [EGCG, epigallocatechin gallate] |  |  |  | 103 ± 12.47 µM |  |  |  |  |  |  |  |  |  |  |  |  |  |  |  |  |  |
| O=C(O)c1cc(O)c(O)c(O)c1 [Gallic acid, 3,4,5-trihydroxybenzoic acid] | 27.51 ± 2.97% |  | 1.00 | 187 ± 7.11 µM | −1.11 | 2.20 | 1.92 | 1.16 | 3.14 | −1.11 | 2.06 | −1.07 | 1.22 | 1.55 | 1.15 | 1.15 | 1.65 | 2.40 |  |  | BACE1 Inhibition (Inhibition% ± SD) (human recombinant BACE1; listed as gallic acid): below 50%; spatial reference learning and memory impairment (APP/PS1 transgenic mice): totally reversed |
| C/C=C1/[C@H](O[C@@H]2O[C@H](CO)[C@@H](O)[C@H](O)[C@H]2O)OC=C(C(=O)OC)[C@H]1CC(=O)OCCc1ccc(O)c(O)c1 [Oleuropein, oleuropein] | 52.38 ± 2.08% | 9870 ± 1010 µM | 1.00 |  | −1.07 | 3.45 | 2.67 | −1.14 | 5.31 | −1.78 | 2.09 | −1.33 | 1.43 | 2.42 | 1.31 | 1.05 | 1.90 | 3.88 | 2.76 ± 0.23 µM | 171 ± 22.01 µM |  |
| O=c1c(O)c(-c2ccc(O)c(O)c2)oc2cc(O)cc(O)c12 [Quercetin, 3,3′,4′,5,7-pentahydroxyflavone, reference compound] | 86.87 ± 4.48% |  |  | 27 ± 5.30 µM |  |  |  |  |  |  |  |  |  |  |  |  |  |  |  |  |  |
| O=C(/C=C/c1ccc(O)c(O)c1)O[C@H](Cc1ccc(O)c(O)c1)C(=O)O [Rosmarinic acid, rosmarinic acid] | 67.04 ± 0.64% | 4060 ± 680 µM | 1.00 |  | 1.55 | 1.34 | 1.82 | 1.33 | 3.02 | 1.11 | 1.75 | 1.45 | 1.32 | −1.07 | 1.08 | 1.01 | 1.23 | 1.88 |  | 546 ± 31.55 µM | IC50 (BACE1; read-out: IC50 (BACE1 inhibitory potential)): 21 µM |
